# Read-outs that look alike come from different tables or passages of the source.
# How the values were obtained:
# [1] = system: ubiquitin isopeptidases; test: Ubiquitin isopeptidase activity, Ub-PEST substrate, lysates of treated RKO and HCT 116 cells; type: cell-based, human; conditions: cells treated 6, 20 or 60 μM, 12 h
# Description: A) Inhibition of isopeptidase proteolysis of Ub-PEST substrate. RKO and HCT 116 cells were treated with DMSO vehicle, 6, 20, or 60 μM of Δ12-PGJ2, DBA, NSC-302979, or curcumin, 60 μM PGB1, 60 μM NSC-156236, or 60 μM DPTP for 12 h, 37° C. Cell lysates from each treatment were incubated with Ub-PEST, as described in materials and methods. Samples were fractionated by SDS-PAGE and proteins detected with ubiquitin epitopes immunochemically (HCT 116 ^+/+ western blot shown as example of raw data). […] B) Inhibition of isopeptidase activity by test panel compounds. Isopeptidase activity was determined by measuring via densitometry, the amount of Ub generated by isopeptidase cleavage of Ub-PEST. Bar graph patterns are DMSO vehicle (black), Δ12-PGJ2 (hatched), DBA (horizontal lines), NSC-302979 (white), PGB1 (diagonally downward right lines), and NSC-156236 (diagonally downward left lines). The amount of Ub generated in the vehicle treated sample (panel A, lane 2) is arbitrarily designated 100%.
# Cellular isopeptidase enzymatic activity was measured with two assays that used different substrates. In one assay ubiquitin-PEST (Ub-PEST) was used, a full-length ubiquitin molecule with an 18 amino acid c-terminal peptide extension (total mass=10.5 kDa). Ubiquitin isopeptidases specifically cleave the 18 amino acid peptide extension, releasing full-length ubiquitin (8.5 kDa).
# Briefly, 6×10^5 cells were incubated with 0-60 μM of test compounds for 12 hrs. Cells were lysed in 50 μL of 25 mM HEPES, 5 mM EDTA, 0.1% CHAPS, 5 mM ATP, pH 7.5. The protein concentration of each sample was adjusted to 0.3 mg/mL and incubated with 50 μg/mL Ub-PEST for 45 minutes at 25° C. Under these conditions, Ub-PEST hydrolysis occurs at a linear rate. 20 μL samples were mixed with 20 μL 2× Laemmli buffer, boiled briefly, and fractionated by SDSPAGE. Isopeptidase activity was monitored by determining the amount of product (8.5 kDa ubiquitin) formation.
# [2] = system: ubiquitin isopeptidases; test: Ubiquitin isopeptidase activity, z-LRGG-AMC substrate, lysates of treated RKO and HCT 116 cells; type: cell-based, human; conditions: cells treated 6, 20 or 60 μM, 12 h
# Description: RKO (upper) and HCT 116 ^+/+ cells (lower) were treated with DMSO vehicle, 6, 20, or 60 μM of Δ12-PGJ2, DBA, NSC-302979, or curcumin, 60 μM PGB1, 60 μM NSC-156236, or 60 μM DPTP for 12 h at 37° C. Cell lysates (0.5 mg/mL) from each treatment were incubated with the isopeptidase substrate, z-LRGG-AMC, for 3 h, 37° C. The amount of AMC cleaved by isopeptidase was determined fluorometrically, as described in Materials and Methods.
# The second assay used a fluorescent tetrapeptide, z-LRGG-AMC, as a substrate that mimics the carboxy-terminus of ubiquitin. Isopeptidase activity hydrolyzes the bond between the c-terminal glycine and the fluorophore. This tetrapeptide also undergoes slow proteolysis by the catalytic subunit of the proteasome. To minimize this background rate of proteolysis cell lysates were incubated with 30 μM MG115 for 30 minutes at 4° C., prior to substrate incubation (>90% proteasome inhibition). Cells were teeated as above, lysed in 250 μL of lysis buffer per sample, and adjusted protein concentration to 0.5 mg/mL prior to incubation with MG115. Next, z-LRGG-AMC substrate was added and fluorescence was quantified of the AMC moiety cleaved by isopeptidase action.
# [3] = system: polyubiquitin conjugates in RKO-E6 cells; test: Accumulation of polyubiquitin in RKO-E6 cells (immunoblot); type: cell-based, human; conditions: EC80 or 60 μM, 6-24 h
# Description: (§1) A) Accumulation of polyubiquitin. RKO-E6 cells were treated with DMSO vehicle for 24 h, 37° C., or with the concentrations of test compounds that gave 80% cell death (as determined by cell viability assay at 48 h) for 6, 12, or 24 h, 37° C. […] Schematic depicting p53 degradation via the proteasome pathway in RKO cells versus RKO-E6 cells. The activity of the HPV E6 oncoprotein hastens p53 degradation in RKO-E6 cells. ii. RKO and RKO-E6 cells were treated with vehicle, etoposide (50 μM), MG115 (20 μM), Δ12-PGJ2 (60 μM), NSC-302979 (20 μM, DBA (20 μM), curcumin (60 μM), PGB1 (60 μM), NSC-156236, (60 XM)or DPTP 60 μM for 6 h, 37° C. Lysates were fractionated by SDS-PAGE and their p53 content determined immunochemically. iii. p53 levels were measured by densitometry and the ratio of p53 protein in RKO-E6 cells/RKO cells calculated.
# (§2) The medium was removed and cells lysed in 50 mM Tris, pH 7.4, 100 mM NaCl, 2 mM EDTA with 0.1% SDS, 0.1% deoxycholate, 1× complete protease inhibitor mixture. Protein concentration was measured by the Bradford method. Equal portions of the total cell lysate were fractionated from each sample (12.5 μg of protein) by SDS-PAGE. Proteins were transferred to poly(vinylidene difluoride) blocked with 5% (w/v) nonfat dry milk in Trisbuffered saline [20 mM Tris-HCl, pH 7.5, 100 mM sodium chloride, 0.1% (v/v) Tween 20]. Proteins were detected immunochemically by using primary antibodies directed against p53 (1:4000) or ubiquitin (1:1000), followed by horseradish peroxidase-conjugated secondary antibodies (1:4000). Antigen-antibody complexes were detected with enhanced chemiluminescence reagents. Gels were scanned and quantified intensities using Kodak 1D Image Analysis Software.
# [4] = system: p53; test: p53 accumulation, ratio RKO-E6 cells/RKO cells (immunoblot, densitometry); type: cell-based, human; conditions: 6 h; etoposide 50 μM, MG115, NSC-302979, DBA 20 μM, others 60 μM
# Description: as §1, §2
# [5] = system: RKO cells; test: MTT cell viability assay, RKO cells; conditions: 48 h; for cell death in RKO compared with RKO-E6 cells: MTT, isogenic pair; for EC50: Homo sapiens, RKO, read-out: Cytotoxic Potency (EC50) RKO
# [6] = system: RKO-E6 cells; test: MTT cell viability assay, RKO-E6 cells; conditions: for EC50: Homo sapiens, RKOE6, 48 h, read-out: Cytotoxic Potency (EC50) RKO-E6
# [7] = system: HCT 116 +/+ cells; test: MTT cell viability assay, HCT 116 p53 +/+ cells; conditions: for cell death in HCT 116 +/+ compared with HCT 116 −/− cells: 48 h, MTT, isogenic pair; for EC50: Homo sapiens, HCT-116, 48 h, read-out: Cytotoxic Potency (EC50) HCT +/+
# [8] = system: HCT 116 −/− cells; test: MTT cell viability assay, HCT 116 p53 −/− cells; conditions: Homo sapiens, HCT-116, 48 h, read-out: Cytotoxic Potency (EC50) HCT −/−
# Description: Cell viability was measured with MTT reagent as described in materials and methods.
# Cell viability was detected by the MTT assay. Briefly, 1×10^5 cells were incubated per well of a sterile, 96-well assay plate with 0-60 μM of test compounds for 48 hours. MTT reagent was added to each well, final concentration of 0.5 mg/mL, and incubated for an additional 3 hours. The media was aspirated and remaining MTT reagent from each well and added 100 μL of HCl:isopropanol (1:24). The absorbance of each sample was measured at 405 nm.
# [9] = system: HCT 116 (p53 wt); test: MTS cytotoxicity, HCT 116 (p53 wt); type: cell-based; conditions: Homo sapiens, 48 h
# Description: (§3) Cytotoxicity in Human Colon Tumor (HCT) Cell Lines. To determine if punaglandins elicit cytotoxicity independently of the tumor-suppressor p53, as do other dienone prostaglandins, several cytotoxicity assays were employed. First, cell death effects of all isolated punaglandins were investigated in pairs of isogenic colon cancer cell lines, the HCT 116^+/+ competent cell line and HCT 116^−/− null cell lines. HCT 116^+/+ cells are homozygous for p53^+/+ and p21^+/+; where as, HCT 116^−/− cells lack both alleles for p53 (p53^−/−) or p21 (p21^−/−).
# (§4) Each cell line was seeded simultaneously in 96-well plates and incubated for 24 h before treatment with individual punaglandins at various concentrations for 48 additional h. Cytotoxicity was determined using MTS and absorbances were recorded at 490 nm. Half maximal effective concentrations (EC50) and Log EC50s were calculated from a concentration-response curve generated using GraphPad Prism (Table 1).
# [10] = system: HCT 116 (p53^−/−); test: MTS cytotoxicity, HCT 116 (p53−/−); type: cell-based; conditions: Homo sapiens, log of EC50 in μM, 48 h, read-out: Log EC50 +/− Standard Error of Log EC50, HCT 116 (p53−/−) (converted)
# Description: as §3, §4
# [11] = system: HCT 116 (p21 wt); test: MTS cytotoxicity, HCT 116 (p21 wt); type: cell-based; conditions: Homo sapiens, log of EC50 in μM, 48 h, read-out: Log EC50 +/− Standard Error of Log EC50, HCT 116 (p21 wt) (converted)
# Description: as §3, §4
# [12] = system: HCT 116 (p21^−/−); test: MTS cytotoxicity, HCT 116 (p21−/−); type: cell-based; conditions: Homo sapiens, log of EC50 in μM, 48 h, read-out: Log EC50 +/− Standard Error of Log EC50, HCT 116 (p21−/−) (converted)
# Description: as §3, §4
# [13] = system: ubiquitin isopeptidases; test: In vitro isopeptidase activity in HCT 116 lysates, Ub-PEST; type: biochemical, human; conditions: HCT 116 lysates, 45 min
# Description: (§5) Isopeptidase Assay. It was hypothesized that the punaglandins would inhibit ubiquitin-isopeptidase activity of the proteasome pathway as does the prostaglandin, Δ^12-PGJ2 (1), but with greater potency because of the chlorinated C-10. To validate this theory, cellular isopeptidase enzymatic activity was measured in vitro after treatment with individual punaglandins, PNG 2 (6), PNG 3 (7), and Z-PNG 4 (9) and in vivo after individual treatment with PNG 4 (8) and PNG 6 (10). This activity was determined utilizing the simple isopeptidase substrate, ubiquitin-PEST (Ub-PEST), a full/length ubiquitin (Ub) molecule fused with an 18-amino acid C-terminal peptide extension that most isopeptidases use as a substrate. The polypeptide extension contains regions rich in Pro (P), Glu (E), Ser (S), and Thr (T) residues called PEST motifs that are responsible for rapid degradation of these and other unstable proteins. Ub isopeptidases specifically cleave this peptide extension, yielding free, full-length Ub. Both the fused Ub-PEST (10.5 kDa) and the cleaved, free Ub (8.5 kDa) can be observed via immunochemical detection.
# In Vitro Isopeptidase Activity. PNG 2 (6), PNG 3 (7), and Z-PNG 4 (9) were initially analyzed for isopeptidase activity in vitro in HCT 116 lysates. Cells were lysed with isopeptidase activity buffer and protein concentration adjusted to 0.3 mg/mL per sample. Each sample was subsequently incubated with 2 μM, 6 μM, 20 μM, 60 μM, or 200 μM of PNG 2 (6), PNG 3 (7), Z-PNG 4 (9), Δ^12-PGJ2 (1), and PGA1 (2) in addition to 50 μg/ml of Ub-PEST. Negative control cells were treated with vehicle (0.5% DMSO) and equivalent Ub-PEST. […] The amount of fused Ub-PEST and free Ub product was determined by SDS-PAGE fractionation.
# [14] = system: ubiquitin isopeptidases; test: In vivo isopeptidase activity after treatment of RKO cells, Ub-PEST; type: cell-based, human; conditions: 6 h
# Description: as §5
# In vivo Isopeptidase Activity. To investigate whether punaglandins can inhibit isopeptidase activity in vivo, isopeptidase activity was analyzed after punaglandin treatment of RKO cells. PNG 4 (8) and PNG 6 (10) were selected for in vivo investigation because they differ only in enone functionality, where (8) is a dienone and (10) an enone. RKO cells were incubated with 1 μM, 4 μM, or 7 μM of PNG 4 (8) and PNG 6 (10). […] As a positive control, cells were treated with a known isopeptidase inhibitor, shikoccin (SK). After 6 h drug treatment, cells were lysed and protein concentration adjusted to 0.3 mg/mL per sample. Each sample was subsequently incubated with 50 μg/mL of Ub-PEST. The reaction was terminated after 20 min and the respective amounts of Ub-PEST (10 kDa) and free Ub product (8.5 kDa) were determined by SDS-PAGE fractionation.
# [15] = log of EC50 in μM, read-out: Log EC50 +/− Standard Error of Log EC50, HCT 116 (p53 wt) (converted)
Compound,inhibition of isopeptidase cleavage of Ub-PEST [1],inhibition of z-LRGG-AMC hydrolysis by ubiquitin isopeptidases [2],cellular accumulation of polyubiquitin conjugates [3],ratio of p53 protein [RKO-E6 cells/RKO cells] [4],cell death in RKO compared with RKO-E6 cells [5],EC50 [5] [µM],EC50 [6] [µM],cell death in HCT 116 +/+ compared with HCT 116 −/− cells [7],EC50 [7] [µM],EC50 [8] [µM],"EC50 [9, 15] [µM]",EC50 [10] [µM],EC50 [11] [µM],EC50 [12] [µM],further results
"O=C(C=Cc1ccccc1)C=Cc1ccccc1 [DBA, dibenzylideneacetone]",inhibited isopeptidase activity in a concentration dependent manner,inhibited ubiquitin isopeptidase activity,protein species with polyubiquitin conjugation accumulated in cells,approached unity,caused cell death with equal potency and efficacy,7 ± 0.6,6.5 ± 1.1,caused cell death with equal potency,3.2 ± 0.1,3.8 ± 0.1,,,,,"EC80, concentration that gave 80% cell death ([6]; cell viability assay at 48 h, RKO-E6 cells): 12.0 µM"
"O=c1cc(-c2ccccc2)sc(-c2ccccc2)c1 [DPTP, 2,6-Diphenyl-4H-thiopyran-4-one]",did not inhibit isopeptidase activity,did not,did not cause appreciable cellular accumulation of ubiquitin conjugates,significantly less than unity,did not cause significant cell death,> 60,> 60,did not cause significant cell death,> 60,> 60,,,,,
CCCCC/C=C\C[C@@]1(O)C=C(Cl)C(=O)[C@@H]1[C@@H](OC(C)=O)[C@H](OC(C)=O)[C@H](CCCC(=O)OC)OC(C)=O [PNG 2],,,,,,,,,,,0.0398,0.0398,0.0468,0.0398,
CC/C=C\C/C=C\C[C@@]1(O)C=C(Cl)C(=O)/C1=C/[C@H](OC(C)=O)[C@H](CCCC(=O)OC)OC(C)=O [PNG 3],,,,,,,,,,,0.324,0.372,0.288,0.295,"concentration at which inhibition of Ub-PEST degradation is initially observed [13]: 20 µM; concentration of complete (total) inhibition of Ub-PEST degradation [13]: 60 µM; EC50 ([9]; average over the three compounds, read-out: average EC50 of PNG 3, PNG 4 and PNG 6, cytotoxicity in HCT 116 cell lines): ~0.35 µM"
C[C@@H]1C[C@@H]([C@H](O)CC2CC(=O)NC(=O)C2)C(=O)[C@@H](C)C1 [cycloheximide],,,,,,,,,,,,,,,"effect on Ub-PEST degradation, control substances [14]: 1:1 ratio of Ub-PEST to free Ub"

# Reference: patent US20060106099A1, “Novel inhibitors of ubiquitin isopeptidases” (priority 2002, published 2006)
